Source: ChEMBL document CHEMBL3745645, “Synthesis, in vitro antitumor activity, dihydrofolate reductase inhibition, DNA intercalation and structure-activity relationship studies of 1,3,5-triazine analogues” (Bioorg Med Chem Lett, 2016)
Activity calls are given as the source filed them. The calls are words filed in the database; no cut-off is given here.

Assays:
[1] = tested on: SK-MEL-5; test: Cytotoxicity against human SK-MEL-5 cells at 10 uM after 48 hrs by SRB assay; type: functional
[2] = Cytotoxicity against human SNB19 cells at 10 uM after 48 hrs by SRB assay; type: functional; conditions: SNB-19, 48 h, read-out: GI
[3] = Cytotoxicity against human HL-60(TB) cells after 48 hrs by SRB assay; type: functional; conditions: HL-60, 48 h, read-out: LC50 (the source's name)
[4] = tested on: NCI-H522; test: Cytotoxicity against human NCI-H522 cells at 10 uM after 48 hrs by SRB assay; type: functional
[5] = Cytotoxicity against human IGROV1 cells after 48 hrs by SRB assay; type: functional; conditions: IGROV-1, 48 h, pooled result: one value given for 7 cell lines, strains, targets or settings
[6] = Cytotoxicity against human PC3 cells after 48 hrs by SRB assay; type: functional; conditions: PC-3, 48 h
[7] = tested on: T47D; test: Cytotoxicity against human T47D cells at 10 uM after 48 hrs by SRB assay; type: functional
[8] = tested on: A549; test: Cytotoxicity against human A549 cells after 48 hrs by SRB assay; type: functional; conditions: A549, 48 h, pooled result: one value given for 8 cell lines, strains, targets or settings
[9] = tested on: MCF7; test: Cytotoxicity against human MCF7 cells after 48 hrs by SRB assay; type: functional; conditions: MCF7, 48 h, pooled result: one value given for 6 cell lines, strains, targets or settings
[10] = tested on: KM12; test: Cytotoxicity against human KM12 cells at 10 uM after 48 hrs by SRB assay; type: functional
[11] = Cytotoxicity against human LOXIMVI cells after 48 hrs by SRB assay; type: functional; conditions: LOX IMVI, pooled result: one value given for 9 cell lines, strains, targets or settings
[12] = Cytotoxicity against human SF268 cells after 48 hrs by SRB assay; type: functional; conditions: SF-268, 48 h, pooled result: one value given for 6 cell lines, strains, targets or settings
[13] = tested on: MDA-MB-231; test: Cytotoxicity against human MDA-MB-231 cells at 10 uM after 48 hrs by SRB assay; type: functional
[14] = tested on: Malme-3M; test: Cytotoxicity against human MALME-3M cells at 10 uM after 48 hrs by SRB assay; type: functional
[15] = tested on: Calf thymus DNA; test: Binding affinity to calf thymus DNA by fluorescence spectrophotometric analysis; type: nucleic-acid assay; conditions: Bos taurus
[16] = tested on: ACHN; test: Cytotoxicity against human ACHN cells at 10 uM after 48 hrs by SRB assay; type: functional; conditions: read-out: GI
[17] = tested on: U-251; test: Cytotoxicity against human U251 cells at 10 uM after 48 hrs by SRB assay; type: functional
[18] = Cytotoxicity against human RPMI8226 cells after 48 hrs by SRB assay; type: functional; conditions: RPMI-8226, 48 h, read-out: LC50 (the source's name)
[19] = tested on: A498; test: Cytotoxicity against human A498 cells at 10 uM after 48 hrs by SRB assay; type: functional
[20] = tested on: SR; test: Cytotoxicity against human SR cells after 48 hrs by SRB assay; type: functional
[21] = tested on: MCF7; test: Cytotoxicity against human MCF7 cells at 10 uM after 48 hrs by SRB assay; type: functional; conditions: MCF7, 48 h, read-out: GI
[22] = Cytotoxicity against human MOLT4 cells after 48 hrs by SRB assay; type: functional; conditions: MOLT-4, 48 h, read-out: LC50 (the source's name)
[23] = tested on: SR; test: Cytotoxicity against human SR cells at 10 uM after 48 hrs by SRB assay; type: functional
[24] = tested on: CCRF-CEM; test: Cytotoxicity against human CCRF-CEM cells after 48 hrs by SRB assay; type: functional
[25] = tested on: NCI-H226; test: Cytotoxicity against human NCI-H226 cells at 10 uM after 48 hrs by SRB assay; type: functional
[26] = tested on: Calf thymus DNA; test: Binding affinity to calf thymus DNA by UV-vis spectrometric analysis; type: nucleic-acid assay; conditions: Bos taurus
[27] = tested on: SN12C; test: Cytotoxicity against human SN12C cells at 10 uM after 48 hrs by SRB assay; type: functional
[28] = tested on: SK-MEL-28; test: Cytotoxicity against human SK-MEL-28 cells at 10 uM after 48 hrs by SRB assay; type: functional
[29] = tested on: A549; test: Cytotoxicity against human A549 cells at 10 uM after 48 hrs by SRB assay; type: functional
[30] = tested on: M14; test: Cytotoxicity against human M14 cells at 10 uM after 48 hrs by SRB assay; type: functional
[31] = pooled result: one value given for 2 cell lines, strains, targets or settings
[32] = pooled result: one value given for 6 cell lines, strains, targets or settings

For `Cc1nc2cc(Nc3nc(Nc4ccc(F)cc4)nc(N4CCCC4)n3)ccc2n1Cc1ccccc1`, the “growth inhibition (GI)” value [1] was “Active”, the inhibition of growth at 10 µM [2] was 66.4% and the CC50 [3] was greater than 100 µM. The “growth inhibition (GI)” value [4] was “Active”, the GI50 [5] was 1.9 µM and the LC50 (concentration killing 50% of cells) [5] was 11 µM. For the same molecule, the TGI [5] was 4.01 µM, the LC50 [6] was 6 µM and the GI50 [6, 31] was 1.82 µM. The TGI [6, 31] was 3.82 µM, the “growth inhibition (GI)” value [7] was “Active” and the GI50 [8] was 1.82 µM. For the same molecule, the LC50 [8] was 14.5 µM, the TGI [8] was 4.02 µM and the GI50 [9] was 1.98 µM. For the same molecule, the LC50 (concentration killing 50% of cells) [9] was 6.69 µM, the TGI [9] was 4.88 µM and the “growth inhibition (GI)” value [10] was “Active”. It also gave a GI50 [11] of 1.81 µM, an LC50 [11] of 13.7 µM and a TGI [11] of 3.68 µM. It also gave a GI50 [12] of 2.08 µM, an LC50 (concentration killing 50% of cells) [12] of 8.64 µM and a TGI [12] of 17.6 µM. For the same molecule, the “growth inhibition (GI)” value [13] was “Active”, the “growth inhibition (GI)” value [14] was “Active” and the Ka [15] was 5.46 ×10⁴ /M. The inhibition of growth at 10 µM [16] was 88.5%, the “growth inhibition (GI)” value [17] was “Active” and the CC50 [18] was greater than 100 µM. For the same molecule, the “growth inhibition (GI)” value [19] was “Active”, the LC50 (concentration killing 50% of cells) [20] was greater than 100 µM and the inhibition of growth at 10 µM [21] was 97%. The CC50 [22] was greater than 100 µM, the “growth inhibition (GI)” value [23] was “Active” and the LC50 [24] was greater than 100 µM. For the same molecule, the GI50 [24, 32] was 2.54 µM, the TGI [24, 32] was 5.28 µM and the “growth inhibition (GI)” value [25] was “Active”. For the same molecule, the Ka [26] was 5.23 ×10⁴ /M, the “growth inhibition (GI)” value [27] was “Active” and the “growth inhibition (GI)” value [28] was “Active”. The “growth inhibition (GI)” value [29] was “Active” and the “growth inhibition (GI)” value [30] was “Active”.
